Data from ChEMBL document CHEMBL3885861, “Open TG-GATES”.

Species: Rattus norvegicus
Assay: Open TG-GATES - Regimen: Daily Repeat
Format: toxicity, organism-based, Sprague-Dawley
Parameters: regimen Daily Repeat, gender Male, age 6 weeks
Conditions: in vivo, po, 45 mg/kg, […], route gavage, dose level High; for KIDNEY_L / KIDNEY_R / KIDNEY_TOTAL: tissue Kidney; for LIVER: tissue Liver; for A/G / ALP / ALT / AST / BUN / CRE / Ca / Cl / DBIL / GLC / IP / K / LDH / Na / PL / RALB / TBIL / TC / TG / TP / gamma-GTP: tissue Plasma

`CC(=N)S` [THIOACETAMIDE] was tested, and the Lym (tissue Blood, time 28 day) was 71.6%, the MCH (tissue Blood, time 28 day) was 18.8 pg and the MCHC (tissue Blood, time 28 day) was 34.5%. The MCV (tissue Blood, time 28 day) was 54.3 fL, the Mono (tissue Blood, time 28 day) was 6.6% and the Neu (tissue Blood, time 28 day) was 21%. For the same compound, the PT (tissue Blood, time 28 day) was 14 s, the Plat (tissue Blood, time 28 day) was 110.9 x10_4/uL and the RBC (tissue Blood, time 28 day) was 835.6 x10_4/ul. For the same compound, the Ret (tissue Blood, time 28 day) was 2.6%, the WBC (tissue Blood, time 28 day) was 183.8 x10_2/uL and the KIDNEY_L (time 7 day) was 1 g. It also gave a KIDNEY_R (time 7 day) of 1 g, a KIDNEY_TOTAL (time 7 day) of 2 g and a KIDNEY_L (time 14 day) of 1.2 g. The KIDNEY_R (time 14 day) was 1.2 g, the KIDNEY_TOTAL (time 14 day) was 2.3 g and the KIDNEY_L (time 28 day) was 1.2 g. The KIDNEY_R (time 28 day) was 1.2 g, the KIDNEY_TOTAL (time 28 day) was 2.4 g and the LIVER (time 7 day) was 11.1 g. The LIVER (time 14 day) was 12.4 g, the LIVER (time 28 day) was 14.3 g and the A/G (time 7 day) was 1.9. For the same compound, the ALP (time 7 day) was 946.4 IU/L, the ALT (time 7 day) was 23.4 IU/L and the AST (time 7 day) was 47 IU/L. The BUN (time 7 day) was 18.4 mg/dL, the CRE (time 7 day) was 0.5 mg/dL and the Ca (time 7 day) was 10.4 mg/dL. It also gave a Cl (time 7 day) of 105.4 meq/L, a DBIL (time 7 day) of 0.026 mg/dL and a GLC (time 7 day) of 164.2 mg/dL. The IP (time 7 day) was 7.3 mg/dL, the K (time 7 day) was 4.8 meq/L and the LDH (time 7 day) was 192.8 IU/L. It also gave a Na (time 7 day) of 136 meq/L, a PL (time 7 day) of 137 mg/dL and an RALB (time 7 day) of 3.6 g/dL. For the same compound, the TBIL (time 7 day) was 0.2 mg/dL, the TC (time 7 day) was 69.8 mg/dL and the TG (time 7 day) was 57.2 mg/dL. For the same compound, the TP (time 7 day) was 5.5 g/dL, the gamma-GTP (time 7 day) was 2 IU/L and the A/G (time 14 day) was 2.3. For the same compound, the ALP (time 14 day) was 1052 IU/L, the ALT (time 14 day) was 26 IU/L and the AST (time 14 day) was 67 IU/L. The BUN (time 14 day) was 18.6 mg/dL, the CRE (time 14 day) was 0.6 mg/dL and the Ca (time 14 day) was 10.2 mg/dL. It also gave a Cl (time 14 day) of 105 meq/L, a DBIL (time 14 day) of 0.08 mg/dL and a GLC (time 14 day) of 165.8 mg/dL. The IP (time 14 day) was 7.3 mg/dL, the K (time 14 day) was 4.3 meq/L and the LDH (time 14 day) was 161 IU/L. The Na (time 14 day) was 135 meq/L, the PL (time 14 day) was 154 mg/dL and the RALB (time 14 day) was 3.7 g/dL. It also gave a TBIL (time 14 day) of 0.3 mg/dL, a TC (time 14 day) of 74.4 mg/dL and a TG (time 14 day) of 83 mg/dL. For the same compound, the TP (time 14 day) was 5.3 g/dL, the gamma-GTP (time 14 day) was 2.4 IU/L and the A/G (time 28 day) was 1.9. It also gave an ALP (time 28 day) of 1032 IU/L, an ALT (time 28 day) of 31.2 IU/L and an AST (time 28 day) of 76 IU/L. It also gave a BUN (time 28 day) of 20.8 mg/dL, a CRE (time 28 day) of 0.6 mg/dL and a Ca (time 28 day) of 9.9 mg/dL. It also gave a Cl (time 28 day) of 106 meq/L, a DBIL (time 28 day) of 0.2 mg/dL and a GLC (time 28 day) of 148.8 mg/dL. It also gave an IP (time 28 day) of 6.3 mg/dL, a K (time 28 day) of 4.4 meq/L and an LDH (time 28 day) of 195.4 IU/L. For the same compound, the Na (time 28 day) was 134 meq/L, the PL (time 28 day) was 138.4 mg/dL and the RALB (time 28 day) was 3.5 g/dL. The TBIL (time 28 day) was 0.3 mg/dL, the TC (time 28 day) was 61.4 mg/dL and the TG (time 28 day) was 20.8 mg/dL. It also gave a TP (time 28 day) of 5.4 g/dL and a gamma-GTP (time 28 day) of 6 IU/L.
